# In patent publication US20030216398A1, “Soluble beta amyloid precursor protein secretion promoters” (priority 2002, published 2003):
# Tests used:
# [1] = system: sAPP Secretion in Rat-Derived Pheochromocytoma PC12h Cells; assay: sAPP secretion promoting activity in PC12h cells (Western blotting of culture supernatant); assay type: cell-based; conditions: 3 hours after addition
# Description: Substrain PC12 h cells of rat-derived pheochromocytoma PC12 h cells (Brain Res., 222 (191), p. 225-233) were handed out by Professor Hiroshi Hatanaka of Osaka University. Dulbecco's modified Eagle's medium (DMEM) was purchased from Nissui Seiyaku K.K., HEPES (N-2-hydroxyethylpiperazine-N′-2-ethanesulfonic acid) buffer (pH 7.4), horse serum (HS) and a penicillin (5000 U/ml)/streptomycin (5 mg/ml) mixture from Gibco, and fetal calf serum (FCS) from BioWhittaker, Inc. A flask for incubation and a 6-well multi-well plate coated with collagen manufactured by Falcon Co., Ltd. and Iwaki Glass Co., Ltd., respectively, were used. Anti-βAPP 22C11 antibody was purchased from Roche Diagnostics, Inc. Other reagents used were special grade chemicals commercially available.
# PC12h cells were grown in DMEM medium supplemented with 10% FCS/5% HS/penicillin-streptomycin, the cells were taken out by pipetting. The cells were inoculated on the collagen-coated 6-well plate to become 50-70% confluent, which was allowed to stand for a day. On the following day, the well was rinsed twice with 1 ml of […] HEPES/DMEM. […]
# The culture supernatant was concentrated by ultrafiltration using Microcon 10 (Amicon, Inc.). […] ECL Plus (Amersham, Inc.) was used for detection, followed by digitalization in Fluor-S Max (Bio-Rad Laboratories) and quantification using NIH-image.
# PC12h cells = assay: Prevention of glutamate-induced cell death (apoptosis) in PC12h cells, surviving cells by LDH activity; assay type: cell-based, rat; conditions: 1 mM glutamate, 72 hours, mean of 3 wells
# Description: Substrain PC12h cells of rat-derived pheochromocytoma PC12 h cells were handed out by Professor Hiroshi Hatanaka of Osaka University. Dulbecco's modified Eagle's medium (DMEM) was purchased from Nissui Seiyaku K.K., HEPES (N-2-hydroxyethylpiperazine-N′-2-ethanesulfonic acid) buffer (pH 7.4), horse serum (HS) and a penicillin (5000 U/ml)/streptomycin (5 mg/ml) mixture from Gibco, fetal calf serum (FCS) from BioWhittaker, Inc., transferrin, insulin and progesterone from Sigma, Inc. A flask for incubation and a collagen-coated 96-well multi-well plate used were manufactured by Falcon Co., Ltd. and Iwaki Glass Co., Ltd., respectively. LDH cytotoxic test Wako was purchased from Wako Pure Chemical Industries, Ltd. Other reagents used were special grade chemicals commercially available.
# PC12h cells were inoculated on the 96-well plate in 2×10^4 cells/cm^2. On the following day, the medium was exchanged with HEPES/DME medium containing […] and 20 nM progesterone. The cells survived 72 hours after were counted. The cell number was determined by solubilizing the cells survived in PBS containing Tween 20 after removal of the medium and assaying in terms of the LDH activity.
# In PC12h cells, glutamate in the medium hampers uptake of cystine, or a material to make glutathione, into cells. Thus, when 1 mM or more glutamates are added to a medium and incubation is continued for 3 days or longer, it is known that PC12h cells become extinct due to apoptosis accompanied by a reduced level of glutathione in the cells.
melting point [°C],Compound,"sAPP secretion level (relative value to the control group, when the control group is made 100) ([1]; 3 μM of each compound, mean of 3 wells, anti-βAPP 22C11 Western blotting quantified with NIH Image)","sAPP level increase as compared to the control group ([1]; 3 μM, mean relative value in 3 wells (FIG. 2)) [times]",Surviving Rate (%) (PC12h cells; 0.1 μM compound),Surviving Rate (%) (PC12h cells; 0.3 μM compound),Surviving Rate (%) (PC12h cells; 1.0 μM compound),Surviving Rate (%) (PC12h cells; 3.0 μM compound),Surviving Rate (%) (PC12h cells; 10.0 μM compound)
–,"COc1ccc(C(=O)N2c3ccccc3[C@H](Nc3ccccc3)C[C@@H]2C)cc1OC (relative stereo) [Compound 1-3, cis-1-(3,4-dimethoxybenzoyl)-2-methyl-N-phenyl-1,2,3,4-tetrahydro-4-quinolinamine]",325.14,3.3,4.89,7.44,49.17,77.51,63.24
146 to 148,"CCC1CC(N(C)c2ccccc2)c2ccccc2N1C(=O)c1ccc(OC)c(OC)c1 (centres unmarked) [Example 54, 1-(3,4-Dimethoxybenzoyl)-2-ethyl-N-methyl-N-phenyl-1,2,3,4-tetrahydro-4-quinolinamine]",–,–,–,–,–,–,–
